ChEMBL document CHEMBL4024735, “Brefeldin A enhances docetaxel-induced growth inhibition and apoptosis in prostate cancer cells in monolayer and 3D cultures” (Bioorg Med Chem Lett, 2017)
Active and inactive are the calls of the source. The calls are words filed in the database; no cut-off is given here.

Legend:
[1] = biological target: RAC-alpha serine/threonine-protein kinase (Homo sapiens) (UniProt P31749); experiment: Inhibition of Akt phosphorylation in human PC3 cells at 50 nM after 24 hrs by Western blot method relative to control; format: cell-based
Sequence of RAC-alpha serine/threonine-protein kinase (Homo sapiens) (P31749 whole entry): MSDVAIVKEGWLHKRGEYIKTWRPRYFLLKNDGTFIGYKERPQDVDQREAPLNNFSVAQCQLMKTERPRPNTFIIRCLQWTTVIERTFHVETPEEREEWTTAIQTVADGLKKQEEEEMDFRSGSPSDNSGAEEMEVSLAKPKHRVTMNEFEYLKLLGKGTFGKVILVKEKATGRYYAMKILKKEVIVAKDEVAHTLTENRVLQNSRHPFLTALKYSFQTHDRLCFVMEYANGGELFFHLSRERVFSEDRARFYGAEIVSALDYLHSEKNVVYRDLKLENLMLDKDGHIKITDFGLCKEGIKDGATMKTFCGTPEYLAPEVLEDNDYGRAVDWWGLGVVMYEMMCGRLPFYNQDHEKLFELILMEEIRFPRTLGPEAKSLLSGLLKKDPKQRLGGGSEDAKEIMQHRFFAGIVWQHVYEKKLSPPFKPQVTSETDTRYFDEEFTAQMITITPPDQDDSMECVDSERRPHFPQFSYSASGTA

[2] = system: PC-3; experiment: Induction of apoptosis in human PC3 cells assessed as Bcl2 level at 50 nM after 24 hrs by Western blot method relative to control; format: functional
[3] = system: PC-3; experiment: Cytotoxicity against 3D culture of human PC3 cells assessed as size of tissue like structure at 50 nM administered once every alternative day for 10 days measured on post last dose by matrigel based microscopic method relative to control; format: functional
[4] = system: LNCaP; experiment: Cytotoxicity against human LNCAP cells assessed as decrease in cell viability after 72 hrs by trypan blue exclusion assay; format: functional, cell-based
[5] = system: PC-3; experiment: Cytotoxicity against human PC3 cells assessed as decrease in cell viability after 72 hrs by trypan blue exclusion assay; format: functional, cell-based
[6] = system: LNCaP; experiment: Induction of apoptosis in human LNCAP cells assessed as morphological changes by propidium iodide staining based fluorescence microscopy; format: functional, cell-based
[7] = system: PC-3; experiment: Induction of apoptosis in human PC3 cells assessed as morphological changes by propidium iodide staining based fluorescence microscopy; format: functional, cell-based
[8] = Drug uptake in CD2F1 mouse plasma at 26.3 mg/kg administered for 1 min via intravenous injection measured 60 mins post dose; format: ADME, organism-based
[9] = system: RWPE-1; experiment: Cytotoxicity against human RWPE1 cells at >=100 nM after 72 hrs by tryphan blue exclusion assay; format: cell-based; conditions: rwpe-1, 72 h
[10] = system: PC-3; experiment: Potentiation of 3 nM docetaxel-induced cytotoxicity against human PC3 cells assessed as decrease in cell viability at 50 nM after 72 hrs by trypan blue exclusion assay; format: functional, cell-based
[11] = system: RWPE-1; experiment: Potentiation of 2 nM docetaxel-induced cytotoxicity against human RWPE1 cells assessed as decrease in cell viability at 50 nM after 72 hrs by trypan blue exclusion assay; format: cell-based; conditions: rwpe-1, 72 h, 0.05 µM
[12] = system: PC-3; experiment: Induction of apoptosis in human PC3 cells at 50 nM after 72 hrs by propidium iodide staining based fluorescence microscopy (reference value: 1.9 +/- 0.8%); format: functional
[13] = system: PC-3; experiment: Potentiation of 2 nM docetaxel-induced apoptosis in human PC3 cells at 50 nM after 72 hrs by propidium iodide staining based fluorescence microscopy (reference value: 1.9 +/- 0.8%); format: functional
[14] = system: PC-3; experiment: Cytotoxicity against human PC3 cells assessed as cell viability at 50 nM after 72 hrs by trypan blue exclusion assay relative to control; format: functional; conditions: PC-3, 72 h, read-out: Activity
[15] = system: PC-3; experiment: Potentiation of 2 nM docetaxel-induced cytotoxicity against human PC3 cells assessed as cell viability at 50 nM after 72 hrs by trypan blue exclusion assay relative to control; format: functional
[16] = system: PC-3; experiment: Potentiation of 2 nM docetaxel-induced cytotoxicity against 3D culture of human PC3 cells assessed as size of tissue like structure at 50 nM administered once every alternative day for 10 days measured on post last dose by matrigel based microscopic method relative to control; format: functional
[17] = biological target: Mitogen-activated protein kinase 3 (Homo sapiens) (UniProt P27361); experiment: Inhibition of Erk1 phosphorylation in human PC3 cells at 50 nM after 24 hrs by Western blot method relative to control; format: cell-based
Sequence of Mitogen-activated protein kinase 3 (Homo sapiens) (P27361 whole entry): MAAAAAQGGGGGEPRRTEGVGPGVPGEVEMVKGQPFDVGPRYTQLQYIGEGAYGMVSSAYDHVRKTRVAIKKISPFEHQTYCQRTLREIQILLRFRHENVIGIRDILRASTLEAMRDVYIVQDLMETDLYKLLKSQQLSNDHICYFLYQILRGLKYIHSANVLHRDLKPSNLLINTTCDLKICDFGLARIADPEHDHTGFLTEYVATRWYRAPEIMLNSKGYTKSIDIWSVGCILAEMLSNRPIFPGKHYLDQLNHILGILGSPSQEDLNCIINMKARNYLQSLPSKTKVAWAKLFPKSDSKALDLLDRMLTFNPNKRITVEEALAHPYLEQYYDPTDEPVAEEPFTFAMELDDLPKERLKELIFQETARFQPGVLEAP

[18] = biological target: Mitogen-activated protein kinase 1 (Homo sapiens) (UniProt P28482); experiment: Inhibition of Erk2 phosphorylation in human PC3 cells at 50 nM after 24 hrs by Western blot method relative to control; format: cell-based
Sequence of Mitogen-activated protein kinase 1 (Homo sapiens) (P28482 whole entry): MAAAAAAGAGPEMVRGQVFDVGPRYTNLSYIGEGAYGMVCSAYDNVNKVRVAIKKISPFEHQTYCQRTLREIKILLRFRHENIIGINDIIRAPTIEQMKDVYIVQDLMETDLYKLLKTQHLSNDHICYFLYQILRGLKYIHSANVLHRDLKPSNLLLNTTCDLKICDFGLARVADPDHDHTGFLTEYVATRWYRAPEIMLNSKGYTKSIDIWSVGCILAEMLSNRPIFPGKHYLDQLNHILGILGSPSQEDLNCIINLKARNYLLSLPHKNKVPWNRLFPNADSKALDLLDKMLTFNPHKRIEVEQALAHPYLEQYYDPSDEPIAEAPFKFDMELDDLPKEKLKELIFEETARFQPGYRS

[19] = biological target: Mitogen-activated protein kinase 1 (Homo sapiens) (UniProt P28482); experiment: Potentiation of 2 nM docetaxel-induced inhibition of Erk2 phosphorylation in human PC3 cells at 50 nM after 24 hrs by Western blot method relative to control; format: cell-based
[20] = system: RWPE-1; experiment: Potentiation of 3 nM docetaxel-induced cytotoxicity against human RWPE1 cells assessed as decrease in cell viability at 50 nM after 72 hrs by trypan blue exclusion assay; format: cell-based; conditions: rwpe-1, 72 h, 0.05 µM
[21] = Selectivity ratio for potentiation of 2 nM docetaxel-induced cytotoxicity against human PC3 cells to potentiation of 2 nM docetaxel-induced cytotoxicity against human RWPE1 cells
[22] = system: PC-3; experiment: Potentiation of 2 nM docetaxel-induced apoptosis in human PC3 cells assessed as Bcl2 level at 50 nM after 24 hrs by Western blot method relative to control; format: functional
[23] = biological target: RAC-alpha serine/threonine-protein kinase (Homo sapiens) (UniProt P31749); experiment: Potentiation of 2 nM docetaxel-induced inhibition of Akt phosphorylation in human PC3 cells at 50 nM after 24 hrs by Western blot method relative to control; format: cell-based
[24] = biological target: Mitogen-activated protein kinase 3 (Homo sapiens) (UniProt P27361); experiment: Potentiation of 2 nM docetaxel-induced inhibition of Erk1 phosphorylation in human PC3 cells at 50 nM after 24 hrs by Western blot method relative to control; format: cell-based
[25] = system: PC-3; experiment: Cytotoxicity against 3D cultures of human PC3 cells assessed as size of tissue-like structure at 2 nM administered once every alternative day for 10 days measured on post last dose by matrigel based microscopic method relative to control; format: functional
[26] = Drug uptake in patient plasma at 20 mg/m2, iv administered for 1 hr as infusion measured 72 hrs post dose; format: ADME, organism-based; conditions: human
[27] = system: Plasma; experiment: Drug uptake in cancer patient plasma at 35 mg/m2, iv administered once every week via infusion measured on day 8 by HPLC-TMS; format: ADME, organism-based; conditions: human, in vivo
[28] = system: RWPE-1; experiment: Cytotoxicity against human RWPE1 cells at 5 to 10 nM after 72 hrs by trypan blue exclusion assay; format: cell-based; conditions: rwpe-1, 72 h, 0.01 µM
[29] = system: PC-3; experiment: Induction of apoptosis in human PC3 cells at 2 nM after 72 hrs by propidium iodide staining based fluorescence microscopy (reference value: 1.9 +/- 0.8%); format: functional
[30] = system: PC-3; experiment: Cytotoxicity against human PC3 cells assessed as cell viability at 2 nM after 72 hrs by trypan blue exclusion assay relative to control; format: functional; conditions: PC-3, 72 h, read-out: Activity
[31] = system: PC-3; experiment: Cytotoxicity against human PC3 cells; format: functional, cell-based
[32] = biological target: RAC-alpha serine/threonine-protein kinase (Homo sapiens) (UniProt P31749); experiment: Inhibition of Akt phosphorylation in human PC3 cells at 2 nM after 24 hrs by Western blot method relative to control; format: cell-based
[33] = biological target: Mitogen-activated protein kinase 3 (Homo sapiens) (UniProt P27361); experiment: Inhibition of Erk1 phosphorylation in human PC3 cells at 2 nM after 24 hrs by Western blot method relative to control; format: cell-based
[34] = biological target: Mitogen-activated protein kinase 1 (Homo sapiens) (UniProt P28482); experiment: Inhibition of Erk2 phosphorylation in human PC3 cells at 2 nM after 24 hrs by Western blot method relative to control; format: cell-based
[35] = system: PC-3; experiment: Induction of apoptosis in human PC3 cells assessed as Bcl2 level at 2 nM after 24 hrs by Western blot method relative to control; format: functional

C[C@H]1CCC/C=C/[C@@H]2C[C@H](O)C[C@H]2[C@H](O)/C=C/C(=O)O1 [BREFELDIN A]
fold change (FC) [1]: 0.99 | fold change (FC) [2]: 0.99 | Activity [3]: 79.3% | Activity [4]: Dose-dependent effect | Activity [5]: Dose-dependent effect | Activity [6]: Dose-dependent effect | Activity [7]: Dose-dependent effect | concentration at 1 h [8]: 700 nM | Activity [9]: Toxic | Activity [10]: Active | Activity [11]: Toxic | Activity [12]: 18% | Activity [13]: 51.2% | viability at 0.05 µM [14]: 83.4% | Activity [15]: 48.4% | Activity [16]: 38.8% | fold change (FC) [17]: 0.99 | fold change (FC) [18]: 0.97 | fold change (FC) [19]: 0.96 | Activity [20]: Toxic | Selectivity ratio [21]: 4 | fold change (FC) [22]: 0.32 | fold change (FC) [23]: 0.97 | fold change (FC) [24]: 0.93

CC(=O)O[C@@]12CO[C@@H]1C[C@H](O)[C@@]1(C)C(=O)[C@H](O)C3=C(C)[C@@H](OC(=O)[C@H](O)[C@@H](NC(=O)OC(C)(C)C)c4ccccc4)C[C@@](O)([C@@H](OC(=O)c4ccccc4)[C@H]21)C3(C)C [DOCETAXEL ANHYDROUS]
Activity [25]: 83.1% | Activity [4]: Dose-dependent effect | Activity [5]: Dose-dependent effect | IC50 ([5]; PC-3, 72 h): 8 nM | concentration at 72 h [26]: 2.8 nM | concentration [27]: 1.79 nM | Activity [6]: Dose-dependent effect | Activity [7]: Dose-dependent effect | Activity [28]: Toxic | Activity [10]: Active | Activity [11]: Toxic | Activity [29]: 14.5% | viability at 0.002 µM [30]: 86.7% | IC50 [31]: 5 to 24 nM | fold change (FC) [32]: 1.01 | fold change (FC) [33]: 0.95 | fold change (FC) [34]: 0.96 | fold change (FC) [35]: 0.71
